{"source": "the supplement of paper PMC11208160"}
{"test": "recombinant barcode read abundance after kanamycin selection (control-corrected) (log10(CPM+1)); higher = more efficient recombination; sequences stand for … in AGTGCAGAGAAAATCGGCCAGTTTTCTCTGCCTGCAGTCCGCATGCCGT…AGATTTATGCAGCGGACTGCCTTTCTCCCAAAGTGATAAACCGGACAGTATCATGGACCGGTTTTCCCGGTAATCCGTATTTGCAAGGTTGGTTTCACT; site = the 11-nt target", "how_it_was_run": "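Recombination efficiency was calculated from barcode counts at recombinant junctions, normalized to counts per million, averaged and corrected by the control. Each value is given as log10(CPM+1). The constructs were Gibson-cloned oligos (promoter, target, barcode, J23119-driven first 104 bridge RNA bases) in a vector with the remaining 73 bp and a T7-inducible recombinase, co-electroporated into E. coli with a donor plasmid and plated in duplicate on chloramphenicol/ampicillin LB agar (control) or chloramphenicol/ampicillin/kanamycin with 0.1 mM IPTG.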"}
{"sequence": "ATCTACTCTTGGGTTCTAACCTGTTGCCT (site ATATACTCTCG)", "recombinant barcode read abundance (log10)": 0.382}
{"sequence": "ATCTACTCTTGGGTTCTAACCTGTTGCCT (site ATCTACTCTAG)", "recombinant barcode read abundance (log10)": 1.56}
{"sequence": "ATCTATACTTGGGTTCTAACCTGTTGCCT (site ATCTATACTAG)", "recombinant barcode read abundance (log10)": 0.821}
{"sequence": "ATCTATACTTGGGTTCTAACCTGTTGCCT (site GGACGAGCTCA)", "recombinant barcode read abundance (log10)": 0.0107}
{"sequence": "ATCTATCCTTGGGTTCTAACCTGTTGCAT (site ACCTAACCTAT)", "recombinant barcode read abundance (log10)": 0.179}
{"sequence": "ATCTATCCTTGGGTTCTAACCTGTTGCAT (site ATCTATCCTAT)", "recombinant barcode read abundance (log10)": 0.198}
{"sequence": "ATCTATTCTTGGGTTCTAACCTGTTGCCT (site ATCGATGCTAG)", "recombinant barcode read abundance (log10)": 0.198}
{"sequence": "ATCTATTCTTGGGTTCTAACCTGTTGCCT (site ATCTATTCTAG)", "recombinant barcode read abundance (log10)": 0.111}
{"sequence": "ATGAACACTTGGGTTCTAACCTGTTGCTG (site ATGAACACTCA)", "recombinant barcode read abundance (log10)": 1.95}
{"sequence": "ATGAACACTTGGGTTCTAACCTGTTGCTG (site TAATGGCCTTC)", "recombinant barcode read abundance (log10)": 0.0343}
{"sequence": "ATGAGAGCTTGGGTTCTAACCTGTTGCCT (site ATAAGACCTAG)", "recombinant barcode read abundance (log10)": 0.324}
{"sequence": "ATGAGAGCTTGGGTTCTAACCTGTTGCCT (site ATGAGAGCTAG)", "recombinant barcode read abundance (log10)": 1.05}
{"sequence": "ATGAGGACTTGGGTTCTAACCTGTTGCCT (site ATGAGGACTAG)", "recombinant barcode read abundance (log10)": 1.84}
{"sequence": "ATGAGGACTTGGGTTCTAACCTGTTGCCT (site CTGAGGACTAG)", "recombinant barcode read abundance (log10)": 0.362}
{"sequence": "ATGAGGACTTGGGTTCTAACCTGTTGCCT (site GTGAGGACTAG)", "recombinant barcode read abundance (log10)": 0.12}
{"sequence": "ATGAGGACTTGGGTTCTAACCTGTTGCCT (site TTGAGGACTAG)", "recombinant barcode read abundance (log10)": 0.246}
{"sequence": "ATGAGGCCTTGGGTTCTAACCTGTTGCTA (site ATGAGGCCTTA)", "recombinant barcode read abundance (log10)": 0.739}
{"sequence": "ATGAGGCCTTGGGTTCTAACCTGTTGCTA (site TCAGAAGCTCG)", "recombinant barcode read abundance (log10)": 0.159}
{"sequence": "ATGATACCTTGGGTTCTAACCTGTTGCAT (site ATGATACCTAT)", "recombinant barcode read abundance (log10)": 1.71}
{"sequence": "ATGATACCTTGGGTTCTAACCTGTTGCAT (site CCTGGGACTTA)", "recombinant barcode read abundance (log10)": 0.243}
{"sequence": "ATGATATCTTGGGTTCTAACCTGTTGCCT (site AAGATATCTAG)", "recombinant barcode read abundance (log10)": 0.0255}
{"sequence": "ATGATATCTTGGGTTCTAACCTGTTGCCT (site ACGATATCTAG)", "recombinant barcode read abundance (log10)": 0.43}
{"sequence": "ATGATATCTTGGGTTCTAACCTGTTGCCT (site AGGATATCTAG)", "recombinant barcode read abundance (log10)": 0.181}
{"sequence": "ATGATATCTTGGGTTCTAACCTGTTGCCT (site ATGATATCTAG)", "recombinant barcode read abundance (log10)": 1.5}
{"sequence": "ATGCAATCTTGGGTTCTAACCTGTTGCCT (site ATGCAAACTAG)", "recombinant barcode read abundance (log10)": 0.104}
{"sequence": "ATGCAATCTTGGGTTCTAACCTGTTGCCT (site ATGCAACCTAG)", "recombinant barcode read abundance (log10)": 0.197}
{"sequence": "ATGCAATCTTGGGTTCTAACCTGTTGCCT (site ATGCAAGCTAG)", "recombinant barcode read abundance (log10)": 0.236}
{"sequence": "ATGCAATCTTGGGTTCTAACCTGTTGCCT (site ATGCAATCTAG)", "recombinant barcode read abundance (log10)": 1.09}
{"sequence": "ATGCGAGCTTGGGTTCTAACCTGTTGCGG (site ATGCGAGCTCA)", "recombinant barcode read abundance (log10)": 0.873}
{"sequence": "ATGCGAGCTTGGGTTCTAACCTGTTGCGG (site ATGCGAGCTCC)", "recombinant barcode read abundance (log10)": 1.92}
{"sequence": "ATGCGAGCTTGGGTTCTAACCTGTTGCGG (site ATGCGAGCTCG)", "recombinant barcode read abundance (log10)": 0.194}
{"sequence": "ATGCGAGCTTGGGTTCTAACCTGTTGCGG (site ATGCGAGCTCT)", "recombinant barcode read abundance (log10)": 1.37}
{"sequence": "ATGCGAGCTTGGGTTCTAACCTGTTGCTG (site ATGCGAGCTCA)", "recombinant barcode read abundance (log10)": 1.19}
{"sequence": "ATGCGAGCTTGGGTTCTAACCTGTTGCTG (site ATGCGAGCTCC)", "recombinant barcode read abundance (log10)": 0.687}
{"sequence": "ATGCGAGCTTGGGTTCTAACCTGTTGCTG (site ATGCGAGCTCG)", "recombinant barcode read abundance (log10)": 0.533}
{"sequence": "ATGCGAGCTTGGGTTCTAACCTGTTGCTG (site ATGCGAGCTCT)", "recombinant barcode read abundance (log10)": 0.76}
{"sequence": "ATGCGGTCTTGGGTTCTAACCTGTTGCCT (site ATGCGGTCTAG)", "recombinant barcode read abundance (log10)": 2.02}
{"sequence": "ATGCGGTCTTGGGTTCTAACCTGTTGCCT (site CTGCGGTCTAT)", "recombinant barcode read abundance (log10)": 0.112}
{"sequence": "ATGCTAACTTGGGTTCTAACCTGTTGCCT (site ATGCTAACTAG)", "recombinant barcode read abundance (log10)": 1.62}
{"sequence": "ATGCTAACTTGGGTTCTAACCTGTTGCCT (site GTGCTAACTTG)", "recombinant barcode read abundance (log10)": 0.471}
{"sequence": "ATGCTATCTTGGGTTCTAACCTGTTGCAG (site ATGCTATCTCT)", "recombinant barcode read abundance (log10)": 0.678}
{"sequence": "ATGCTATCTTGGGTTCTAACCTGTTGCAG (site CACGGTCCTTG)", "recombinant barcode read abundance (log10)": 0.276}
{"sequence": "ATGCTGTCTTGGGTTCTAACCTGTTGCTA (site ATGCTGTCTTA)", "recombinant barcode read abundance (log10)": 1.52}
{"sequence": "ATGCTGTCTTGGGTTCTAACCTGTTGCTA (site GACTACCCTAG)", "recombinant barcode read abundance (log10)": 0.273}
{"sequence": "ATGGCACCTTGGGTTCTAACCTGTTGCCT (site AGGGCACCTTG)", "recombinant barcode read abundance (log10)": 0.035}
{"sequence": "ATGGCACCTTGGGTTCTAACCTGTTGCCT (site ATGGCACCTAG)", "recombinant barcode read abundance (log10)": 1.04}
{"sequence": "ATGGCCTCTTGGGTTCTAACCTGTTGCTA (site ATGGCCTCTTA)", "recombinant barcode read abundance (log10)": 2.5}
{"sequence": "ATGGCCTCTTGGGTTCTAACCTGTTGCTA (site GCTTAAACTAG)", "recombinant barcode read abundance (log10)": 0.0975}
{"sequence": "ATGGGCCCTTGGGTTCTAACCTGTTGCTG (site ATGGGCCCTAA)", "recombinant barcode read abundance (log10)": 0.13}
{"sequence": "ATGGGCCCTTGGGTTCTAACCTGTTGCTG (site ATGGGCCCTCA)", "recombinant barcode read abundance (log10)": 2.97}
{"sequence": "ATGGGCCCTTGGGTTCTAACCTGTTGCTG (site ATGGGCCCTGA)", "recombinant barcode read abundance (log10)": 0.127}
{"sequence": "ATGGGCCCTTGGGTTCTAACCTGTTGCTG (site ATGGGCCCTTA)", "recombinant barcode read abundance (log10)": 0.511}
{"sequence": "ATGGGGTCTTGGGTTCTAACCTGTTGCTT (site AAGGGGTCTAA)", "recombinant barcode read abundance (log10)": 0.223}
{"sequence": "ATGGGGTCTTGGGTTCTAACCTGTTGCTT (site ATGGGGTCTAA)", "recombinant barcode read abundance (log10)": 1.73}
{"sequence": "ATGGGTCCTTGGGTTCTAACCTGTTGCCG (site ATAGGTCCTCA)", "recombinant barcode read abundance (log10)": 0.536}
{"sequence": "ATGGGTCCTTGGGTTCTAACCTGTTGCCG (site ATGGGTCCTCG)", "recombinant barcode read abundance (log10)": 2.21}
{"sequence": "ATGGTCACTTGGGTTCTAACCTGTTGCCT (site AAGGTCACTAG)", "recombinant barcode read abundance (log10)": 0.354}
{"sequence": "ATGGTCACTTGGGTTCTAACCTGTTGCCT (site ACGGTCACTAG)", "recombinant barcode read abundance (log10)": 1.18}
{"sequence": "ATGGTCACTTGGGTTCTAACCTGTTGCCT (site AGGGTCACTAG)", "recombinant barcode read abundance (log10)": 0.0805}
{"sequence": "ATGGTCACTTGGGTTCTAACCTGTTGCCT (site ATGGTCACTAG)", "recombinant barcode read abundance (log10)": 2.54}
{"sequence": "ATGGTGTCTTGGGTTCTAACCTGTTGCCT (site ATGGTGACTAG)", "recombinant barcode read abundance (log10)": 0.109}
{"sequence": "ATGGTGTCTTGGGTTCTAACCTGTTGCCT (site ATGGTGCCTAG)", "recombinant barcode read abundance (log10)": 0.768}
{"sequence": "ATGGTGTCTTGGGTTCTAACCTGTTGCCT (site ATGGTGGCTAG)", "recombinant barcode read abundance (log10)": 0.0539}
{"sequence": "ATGGTGTCTTGGGTTCTAACCTGTTGCCT (site ATGGTGTCTAG)", "recombinant barcode read abundance (log10)": 2.75}
{"sequence": "ATGTACACTTGGGTTCTAACCTGTTGCCT (site ATGGATACTAG)", "recombinant barcode read abundance (log10)": 0.0684}
{"sequence": "ATGTACACTTGGGTTCTAACCTGTTGCCT (site ATGTACACTAG)", "recombinant barcode read abundance (log10)": 1.55}
{"sequence": "ATGTAGTCTTGGGTTCTAACCTGTTGCCT (site ATGTAGTCTAG)", "recombinant barcode read abundance (log10)": 1.89}
{"sequence": "ATGTAGTCTTGGGTTCTAACCTGTTGCCT (site TTGTCGTCTAG)", "recombinant barcode read abundance (log10)": 0.24}
{"sequence": "ATGTCCTCTTGGGTTCTAACCTGTTGCCT (site ATGACCTCTAG)", "recombinant barcode read abundance (log10)": 0.145}
{"sequence": "ATGTCCTCTTGGGTTCTAACCTGTTGCCT (site ATGCCCTCTAG)", "recombinant barcode read abundance (log10)": 0.872}
{"sequence": "ATGTCCTCTTGGGTTCTAACCTGTTGCCT (site ATGGCCTCTAG)", "recombinant barcode read abundance (log10)": 0.276}
{"sequence": "ATGTCCTCTTGGGTTCTAACCTGTTGCCT (site ATGTCCTCTAG)", "recombinant barcode read abundance (log10)": 1.5}
{"sequence": "ATGTCTGCTTGGGTTCTAACCTGTTGCCT (site ATGTCTGCTAG)", "recombinant barcode read abundance (log10)": 0.475}
{"sequence": "ATGTCTGCTTGGGTTCTAACCTGTTGCCT (site GATGGACCTTA)", "recombinant barcode read abundance (log10)": 0.0105}
{"sequence": "ATGTGAACTTGGGTTCTAACCTGTTGCTG (site ATGTGAACTCA)", "recombinant barcode read abundance (log10)": 1.02}
{"sequence": "ATGTGAACTTGGGTTCTAACCTGTTGCTG (site GCAGCCTCTAC)", "recombinant barcode read abundance (log10)": 0.0648}
{"sequence": "ATGTGCTCTTGGGTTCTAACCTGTTGCCT (site AAGTGCTCTAG)", "recombinant barcode read abundance (log10)": 0.204}
